# Literature values in US20100112105A1, “Antimicrobial efficacy of aframomum Melegueta extract against propionibacterium acnes” (ACCESS BUSINESS GROUP INTERNATIONAL LLC, priority 2008, published 2010).
# System: Mycobacterium chelonei, M. intracellulare, M. smegmatis, and M. xenopi
# Conditions: Galal, Pharmaceutical Biology 1996
row,Structure (SMILES),activity against mycobacteria
1,CCCCCCCC(=O)CCc1ccc(O)c(OC)c1 [6-paradol],active
2,CCCCC/C=C/C(=O)CCc1ccc(O)c(OC)c1 [6-shogaol],active
3,COc1cc(CCC(C)=O)ccc1O [gingerone],inactive
